Measurements reported in patent US20240376099A1, “COMPOUNDS AND COMPOSITIONS AS INHIBITORS OF ENDOSOMAL TOLL-LIKE RECEPTORS” (Novartis AG, priority 2016, published 2024).

Biological target: T1, TLR7 (Homo sapiens, UniProt Q9NYK1)
T1 construct: Fresh blood was collected from normal human donors; endogenous in cells; host or cells: human PBMCs from fresh donor blood
T1 sequence (Q9NYK1 27-1049): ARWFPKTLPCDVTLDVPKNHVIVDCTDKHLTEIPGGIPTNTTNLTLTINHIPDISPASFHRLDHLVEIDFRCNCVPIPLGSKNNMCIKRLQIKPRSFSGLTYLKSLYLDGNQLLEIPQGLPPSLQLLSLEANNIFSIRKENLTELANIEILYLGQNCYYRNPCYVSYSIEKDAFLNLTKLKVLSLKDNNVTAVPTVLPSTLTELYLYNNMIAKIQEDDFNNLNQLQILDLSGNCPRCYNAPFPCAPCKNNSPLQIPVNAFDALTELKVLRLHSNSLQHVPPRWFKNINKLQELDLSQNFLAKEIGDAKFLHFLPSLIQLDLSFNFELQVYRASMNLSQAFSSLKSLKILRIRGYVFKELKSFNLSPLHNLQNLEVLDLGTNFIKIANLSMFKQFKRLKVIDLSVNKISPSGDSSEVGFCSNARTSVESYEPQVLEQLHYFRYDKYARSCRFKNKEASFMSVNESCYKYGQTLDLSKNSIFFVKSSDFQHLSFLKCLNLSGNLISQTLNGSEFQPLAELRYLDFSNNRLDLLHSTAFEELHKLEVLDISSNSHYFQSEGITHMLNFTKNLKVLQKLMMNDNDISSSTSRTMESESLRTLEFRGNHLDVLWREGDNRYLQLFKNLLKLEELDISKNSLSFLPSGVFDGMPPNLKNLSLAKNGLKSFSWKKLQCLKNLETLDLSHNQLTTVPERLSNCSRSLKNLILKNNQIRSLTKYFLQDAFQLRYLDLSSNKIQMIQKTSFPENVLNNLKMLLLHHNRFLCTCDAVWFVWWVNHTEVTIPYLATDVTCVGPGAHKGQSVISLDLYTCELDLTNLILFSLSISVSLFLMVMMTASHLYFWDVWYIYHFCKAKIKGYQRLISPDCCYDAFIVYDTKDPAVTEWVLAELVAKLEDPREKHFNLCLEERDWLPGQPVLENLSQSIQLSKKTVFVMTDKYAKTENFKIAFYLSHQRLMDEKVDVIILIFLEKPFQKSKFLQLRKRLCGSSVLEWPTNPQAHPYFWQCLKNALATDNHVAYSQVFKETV
Assay: huPBMC TLR7 Antagonist IFNα Assay
Format: cell-based
Details: human PBMCs stimulated with ssRNA40 10 μg/mL (DOTAP), 14-16 hrs; IFNα2b AlphaLISA read-out
How it was run: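 Human PBMCs from fresh donor blood (150,000 cells/well) stimulated 14–16 h at 37 °C with DOTAP-complexed ssRNA40 (final 1 μg/ml for TLR8, 10 μg/mL for TLR7) or ODN2216 (final 0.3 μM, TLR9), 0.25% DMSO, ten-point 1/3 compound dilutions. Supernatant IL-6 read by HTRF (TLR8); IFNα by IFNα2b AlphaLISA (TLR7/TLR9).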

Row | SMILES | IC50 [nM]
1 | Cc1cc(N2CCc3c(c(C)nn3CC34CCC(N5C[C@@H](O)[C@@H](O)C5)(CC3)CC4)C2)c2cnn(C)c2n1 [compound 74, (3S,4R)-1-(4-((5-(1,6-dimethyl-1H-pyrazolo[3,4-b]pyridin-4-yl)-3-methyl-4,5,6,7-tetrahydro-1H-pyrazolo[4,3-c]pyridin-1-yl)methyl)bicyclo[2.2.2]octan-1-yl)pyrrolidine-3,4-diol] | 7
2 | CCOCCNC12CCC(Cn3nc(C)c4c3CCN(c3cc(C)nc5c3cnn5C)C4)(CC1)CC2 [compound 71, 4-((5-(1,6-dimethyl-1H-pyrazolo[3,4-b]pyridin-4-yl)-3-methyl-4,5,6,7-tetrahydro-1H-pyrazolo[4,3-c]pyridin-1-yl)methyl)-N-(2-ethoxyethyl)bicyclo[2.2.2]octan-1-amine] | 5
3 | Cc1nn(CC23CCC(N4CCCC4)(CC2)CC3)c2c1CN(c1ccnc(-c3ccccc3)c1)CC2 [compound 85, 3-methyl-5-(2-phenylpyridin-4-yl)-1-((4-(pyrrolidin-1-yl)bicyclo[2.2.2]octan-1-yl)methyl)-4,5,6,7-tetrahydro-1H-pyrazolo[4,3-c]pyridine] | 46
4 | Cc1cc(N2CCc3c(c(C)nn3CC34CCC(N5CCOCC5)(CC3)CC4)C2)c2cnn(C)c2n1 [Compound No. 59, 4-(4-((5-(1,6-dimethyl-1H-pyrazolo[3,4-b]pyridin-4-yl)-3-methyl-4,5,6,7-tetrahydro-1H-pyrazolo[4,3-c]pyridin-1-yl)methyl)bicyclo[2.2.2]octan-1-yl)morpholine] | 4
5 | Cc1nn(CC23CCC(N)(CC2)CC3)c2c1CN(c1ccnc(-c3ccc(C#N)cc3)c1)CC2 [Compound No. 84, 4-(4-(1-((4-aminobicyclo[2.2.2]octan-1-yl)methyl)-3-methyl-6,7-dihydro-1H-pyrazolo[4,3-c]pyridin-5(4H)-yl)pyridin-2-yl)benzonitrile] | 302
6 | Cc1cc(N2CCc3c(c(C)nn3CC34CCC(NC(C)CO)(CC3)CC4)C2)c2cnn(C)c2n1 (stereo not drawn) [compound 56, 2-((4-((5-(1,6-dimethyl-1H-pyrazolo[3,4-b]pyridin-4-yl)-3-methyl-4,5,6,7-tetrahydro-1H-pyrazolo[4,3-c]pyridin-1-yl)methyl)bicyclo[2.2.2]octan-1-yl)amino)propan-1-ol] | 7
7 | Cc1cc(N2CCc3c(c(C)nn3CC34CCC(N5CCCC5)(CC3)CC4)C2)c2cnn(C)c2n1 [Compound No. 58, 5-(1,6-dimethyl-1H-pyrazolo[3,4-b]pyridin-4-yl)-3-methyl-1-((4-(pyrrolidin-1-yl)bicyclo[2.2.2]octan-1-yl)methyl)-4,5,6,7-tetrahydro-1H-pyrazolo[4,3-c]pyridine] | 3
8 | Cc1cc(N2CCc3c(c(C)nn3CC34CCC(N5C[C@H](O)[C@@H](O)C5)(CC3)CC4)C2)c2cnn(C)c2n1 [compound 80, (3S,4S)-1-(4-((5-(1,6-dimethyl-1H-pyrazolo[3,4-b]pyridin-4-yl)-3-methyl-4,5,6,7-tetrahydro-1H-pyrazolo[4,3-c]pyridin-1-yl)methyl)bicyclo[2.2.2]octan-1-yl)pyrrolidine-3,4-diol] | 2
9 | COCCNC12CCC(Cn3nc(C)c4c3CCN(c3cc(C)nc5c3cnn5C)C4)(CC1)CC2 [Compound No. 69, 4-((5-(1,6-dimethyl-1H-pyrazolo[3,4-b]pyridin-4-yl)-3-methyl-4,5,6,7-tetrahydro-1H-pyrazolo[4,3-c]pyridin-1-yl)methyl)-N-(2-methoxyethyl)bicyclo[2.2.2]octan-1-amine] | 9
